According to patent US9296631B2, “Preparation of environmentally acceptable scale inhibitors” (Ecolab USA Inc., priority 2008, dated 2016):

Tests used:
[1] = OECD 306 biodegradation test, closed bottle method; settings: percent of measured COD, no substrate, acidic, non-neutralized form; for BIODEGRADATION by OECD 306 Max, 28 d (%): 28 days; for BIODEGRADATION by OECD 306 Max, 63 d (%): 63 days
Procedure: Full details of the procedure and methods of calculation are publicly available in OECD documents. In all cases, the tests were performed without a substrate and the percent biodegradation was determined as a percentage of the measured chemical oxygen demand (COD).
Each of the datasets presented in Table 1 and FIGS. 2 through 5 were obtained on the products as described in their acidic, non-neutralized forms.

[2] = Scale inhibitor performance, dynamic loop method; settings: Field I brine, 128 C, pH 7.7, 10 mL/min; hold time 1 hour
Text: A number of scale inhibitor performance tests were undertaken using the dynamic loop method. This method is widely used in the oilfield service industry and is designed to evaluate the ability of a candidate scale inhibitor to delay the blockage of a small diameter metal capillary when injected with a scaling brine at constant flow rate under selected test conditions. The test conditions and water compositions are generally selected to represent, at least in-part, the process conditions under which a scale inhibitor might be deployed. The flow rate of the test brine is generally selected to allow the experiment to be performed in a repeatable and controlled manner. […]
Typically, one or more tests without any added scale inhibitor (blank tests) were performed in order to determine the scaling time for the un-inhibited brine under the given test conditions. […] The deposition of scale was monitored by measuring the differential pressure (ΔP) developed across the test capillary over time. […] Alternatively, the concentration of the scale inhibitor can be reduced step-wise and the minimum inhibitor concentration (MIC) required for preventing a given increase in ΔP over a given time period can be determined. […]
To prepare the test water, each water composition was divided into two parts. […] The pH of the individual waters was also measured and adjusted. […]

Row | Molecule | BIODEGRADATION by OECD 306 Max, 28 d (%) [1] [%] | BIODEGRADATION by OECD 306 Max, 63 d (%) [1] [%] | BIODEGRADATION by OECD 306 Max, 28 d (%) ([1]; listed as Phosphonate 1) | MIC Field I (ppm) [2]
1 | O=P(O)(O)CN(CCN(CCN(CP(=O)(O)O)CP(=O)(O)O)CP(=O)(O)O)CCN(CP(=O)(O)O)CP(=O)(O)O [TETHMPA, tri-ethylene tetra amine hexa(methylene phosphonic acid)] | 0 | – | – | –
2 | BAEE | 0 | 5 | – | –
3 | O=P(O)(O)CN(CCCCCCN(CP(=O)(O)O)CP(=O)(O)O)CCCCCCN(CP(=O)(O)O)CP(=O)(O)O [BHMTPA, bis(hexamethylene) triamine penta(methylene phosphonic acid)] | 6 | – | – | –
4 | O=P(O)(O)CN(CCO)CP(=O)(O)O [MEA, monoethanolamine bis(methylene phosphonic acid)] | 6 | 3 | – | –
5 | O=P(O)(O)CN(CCN(CP(=O)(O)O)CP(=O)(O)O)CCN(CP(=O)(O)O)CP(=O)(O)O [DETA, diethylene triamine penta(methylene phosphonic acid)] | 0 | – | 0 | 6-8 ppm
